Experimental data as given in patent publication US20090192077A1, “North-2'deoxy -methanocarbathymidines as antiviral agents for treatment of kaposi's sarcoma-associated herpes virus” (priority 2005, published 2009).

How the values were obtained:
human cellular TK = conditions: cited from earlier work
HSV-1 TK = HSV-1 TK (Human herpesvirus 1, UniProt P0DTH5); conditions: cited from earlier work
EBV TK = EBV TK (Epstein-Barr virus, UniProt P03177); conditions: cited from earlier work
BCBL-1 cells = assay: Intracellular phosphorylation in KSHV-infected BCBL-1 cells (HPLC of methanolic extracts)
Method: Exponentially growing BCBL-1 cells or CEM-SS cells (a human T cell line) were washed three times with PBS and cultured in serum free AIM-V w/BSA medium (Invitrogen) at 2×10^5 cells/mL in the absence (unstimulated control) or presence of 20 ng/mL PMA. After 24 hours, unstimulated and PMA-stimulated cells were harvested, washed once with PBS and resuspended in serum free AIM-V […] radiolabeled compound [^3H]-(N)-MCT, [^3H]-CDV or [^3H]-GCV. Control cultures containing the same concentration of the test compounds but without the radiolabeled formulations were simultaneously set up in an identical manner to assess the cell counts and to evaluate their anti-KSHV activity. In selected experiments, 5′-ET was added at 10˜50 μM to investigate the changes in the anti-KSHV activity and intracellular phosphorylation profiles of the test compounds. The cells were harvested after 24 or 72 hours of incubation.
Upon harvest, the cells were centrifuged at 1,500 rpm for 10 min and washed once with cold PBS. The cell pellets were resuspended in 250 μL of 60% methanol and heated at 95° C. for 3 min, followed by a microcentrifugation at 12,000 g for 10 min at 4° C. The clarified supernatant fractions were evaporated under nitrogen, redissolved in 250 μL of water and subjected to HPLC separation of the phosphorylated metabolites as described in detail elsewhere (Noy, R. et al. 2002 Mol Cancer Ther 1:585-93; Zalah, L. et al. 2002 Antiviral Res 55:63-75). Fractions containing radiolabeled nucleotides were quantitated based on the known specific activity of the parent tritiated nucleoside (Noy, R. et al. 2002 Mol Cancer Ther 1:585-93; Zalah, L. et al. 2002 Antiviral Res 55:63-75).

CEM-SS cells = assay: Intracellular phosphorylation in uninfected CEM-SS cells; conditions: 10 μM N-MCT, with or without PMA-stimulation
Method: Exponentially growing BCBL-1 cells or CEM-SS cells (a human T cell line) were washed three times with PBS and cultured in serum free AIM-V w/BSA medium (Invitrogen) at 2×10^5 cells/mL in the absence (unstimulated control) or presence of 20 ng/mL PMA. After 24 hours, unstimulated and PMA-stimulated cells were harvested, washed once with PBS and resuspended in serum free AIM-V w/BSA medium at 2×10^5 cells/mL without PMA in the absence or presence of 10 μM N-MCT, CDV or GCV and 5 μCi/mL of the corresponding radiolabeled compound [^3H]-(N)-MCT, [^3H]-CDV or [^3H]-GCV. Control cultures containing the same concentration of the test compounds but without the radiolabeled formulations were simultaneously set up in an identical manner to assess the cell counts and to evaluate their anti-KSHV activity. In selected experiments, 5′-ET was added at 10˜50 μM to investigate the changes in the anti-KSHV activity and intracellular phosphorylation profiles of the test compounds. The cells were harvested after 24 or 72 hours of incubation.
Upon harvest, the cells were centrifuged at 1,500 rpm for 10 min and washed once with cold PBS. […] Fractions containing radiolabeled nucleotides were quantitated based on the known specific activity of the parent tritiated nucleoside (Noy, R. et al. 2002 Mol Cancer Ther 1:585-93; Zalah, L. et al. 2002 Antiviral Res 55:63-75).

Chain of EBV TK (P03177 whole entry): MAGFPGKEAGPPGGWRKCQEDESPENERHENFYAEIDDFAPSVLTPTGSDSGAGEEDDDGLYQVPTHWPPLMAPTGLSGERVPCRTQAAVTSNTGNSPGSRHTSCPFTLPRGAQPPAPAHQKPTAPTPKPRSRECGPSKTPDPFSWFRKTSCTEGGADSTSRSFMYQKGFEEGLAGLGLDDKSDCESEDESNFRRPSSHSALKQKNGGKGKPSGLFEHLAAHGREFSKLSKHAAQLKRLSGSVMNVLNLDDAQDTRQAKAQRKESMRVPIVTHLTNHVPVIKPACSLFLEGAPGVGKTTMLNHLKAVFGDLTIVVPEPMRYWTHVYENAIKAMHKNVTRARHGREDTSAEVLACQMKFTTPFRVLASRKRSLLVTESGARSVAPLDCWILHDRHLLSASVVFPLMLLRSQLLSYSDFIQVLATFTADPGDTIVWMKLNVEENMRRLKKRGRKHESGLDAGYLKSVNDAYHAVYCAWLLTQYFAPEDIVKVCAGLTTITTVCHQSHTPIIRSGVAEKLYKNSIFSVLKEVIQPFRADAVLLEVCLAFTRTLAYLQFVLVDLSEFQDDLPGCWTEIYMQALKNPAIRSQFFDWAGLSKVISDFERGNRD
Chain of HSV-1 TK (P0DTH5 whole entry): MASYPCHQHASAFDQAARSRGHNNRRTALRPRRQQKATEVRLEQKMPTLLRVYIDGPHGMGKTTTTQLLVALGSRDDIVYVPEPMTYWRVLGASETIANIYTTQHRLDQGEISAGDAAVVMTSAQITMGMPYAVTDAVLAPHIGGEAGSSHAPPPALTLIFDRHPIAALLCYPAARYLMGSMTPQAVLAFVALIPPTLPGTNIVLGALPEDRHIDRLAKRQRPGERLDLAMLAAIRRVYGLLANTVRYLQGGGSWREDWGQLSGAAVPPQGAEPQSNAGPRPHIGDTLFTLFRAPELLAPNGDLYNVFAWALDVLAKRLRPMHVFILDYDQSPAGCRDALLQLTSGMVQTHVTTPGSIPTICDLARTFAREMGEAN

Row | SMILES | inhibitory activity against human cellular TK (human cellular TK) | inhibitory activity against HSV-1 TK (HSV-1 TK) | inhibitory activity against EBV TK (EBV TK) | intracellular level compared with CDV-DP and GCV-TP (BCBL-1 cells; 10 μM of each compound, up to 72 hours, especially PMA-stimulated BCBL-1) | level of phosphorylated metabolite in the presence of 50 μM 5'-ET (BCBL-1 cells; PMA-induced BCBL-1, 1, 3 or 10 μM N-MCT) | accumulation of phosphorylated metabolite in uninfected cells (CEM-SS cells)
1 | C#CC(O)[C@H]1O[C@@H](n2cc(C)c(=O)[nH]c2=O)C[C@@H]1O (stereo partly drawn) [5′-ET, 5′-ethynylthymidine] | not against human cellular TK | strong inhibitory activity | strong inhibitory activity |  |  | 
2 | Cc1cn([C@H]2C[C@H](O)[C@]3(COP(=O)(O)OP(=O)(O)OP(=O)(O)O)C[C@H]23)c(=O)[nH]c1=O [N-MCT-TP, North-methanocarbathymidine triphosphate] |  |  |  | significantly higher | substantially decreased | no appreciable accumulations
